Reference: ChEMBL document CHEMBL1153808, “Antimalarial benzylisoquinoline alkaloid from the rainforest tree Doryphora sassafras” (J Nat Prod, 2009)

What was measured:
[1] = tested on: HEK293; assay: Cytotoxicity against human HEK293 cells at 120 uM after 72 hrs by Alamar blue assay; type: cell-based; conditions: hek293, 72 h
[2] = in vitro; conditions: human, HEK293 cells
Description: Selectivity index, ratio of antimicrobial activity against Plasmodium falciparum Dd2 over cytotoxicity against human HEK293 cells

[3] = in vitro; conditions: human, HEK293 cells; remark: listed apart in the source
Description: Selectivity index, ratio of antimicrobial activity against Plasmodium falciparum 3D7 over cytotoxicity against human HEK293 cells

[4] = tested on: Plasmodium falciparum; assay: microbe, parasite or virus in culture; conditions: 3D7, 72 h
Description: Antimalarial activity against chloroquine-sensitive Plasmodium falciparum 3D7 after 72 hrs by DAPI staining method

[5] = tested on: Plasmodium falciparum; assay: microbe, parasite or virus in culture; conditions: Dd2, 72 h
Description: Antimalarial activity against chloroquine-resistant Plasmodium falciparum Dd2 after 72 hrs by DAPI staining method

[6] = tested on: HEK293; assay: Cytotoxicity against human HEK293 cells at 2 uM after 72 hrs by Alamar blue assay; type: cell-based; conditions: hek293, 72 h

| SMILES | Activity [1] [%] | selectivity ratio [2] | selectivity ratio [3] | IC50 [4] [µM] | IC50 [5] [µM] | Activity [6] [%] |
| --- | --- | --- | --- | --- | --- | --- |
| C[n+]1ccc2cc3c(cc2c1Cc1ccc(O)cc1)OCO3.O=C([O-])C(F)(F)F | 0 | > 27 | > 40 | 4.4 | 3 | – |
| COc1ccc2c(c1O)-c1c(OC)c(OC)cc3c1[C@H](C2)NCC3.O=C(O)C(F)(F)F | 0 | > 6 | > 6 | 19 | 17 | – |
| C[C@@H]1CC[C@H]2[C@@H](C)C(=O)O[C@@H]3O[C@@]4(C)CC[C@@H]1[C@]32OO4 [ARTEMISININ] | – | > 100 | > 100 | 0.021 | 0.021 | 0 |
| CCN(CC)CCCC(C)Nc1ccnc2cc(Cl)ccc12 (stereo unspecified) [CHLOROQUINE] | – | – | – | – | – | 0 |
